Measurements as given in PMC10907374, “G2019S selective LRRK2 kinase inhibitor abrogates mitochondrial DNA damage” (NPJ Parkinson's Disease, 2024).
Several values for one entry are separate records, joined by “and”; a condition that tells them apart may be missing. Equal values may be shown once. Entries after “also recorded” stand apart in the source; their conditions may differ.

Key:
[1] = test system: G2019S-LRRK2 expressing HEK293 cells; assay: Mito DNADX mtDNA damage and mtDNA copy number in G2019S-LRRK2 overexpressing HEK293 cells; type: cell-based, human; conditions: 10 nM-1 μM, 2 h
Procedure: (§1) Cells were plated at a density of 0.3 × 10^6 cells in a 6-well dish and treated at ~40–50% confluency. At the time of harvest, cells were collected and either protein collected or DNA extracted as described below.
(§2) The tool compound EB-42168 was discovered as part of a small molecule discovery program aimed at identifying LRRK2 kinase inhibitors that are selective for the pathogenic G2019S LRRK2 variant. […] MLi‐2 inhibits WT LRRK2 ~1000‐fold more than EB‐42168[20].
(§3) Cells were collected and the nuclei and mitochondria were isolated as previously described. DNA was extracted from LRRK2-WT and G2019S-LRRK2 cells, and wild-type and LRRK2^G2019S/G2019S KI cells using QuickGene DNA Whole Blood Kit L (Autogen, fk-dbl). PD patient LRRK2 G2019S and healthy subject control-derived LCL DNA was extracted using the QuickGene DNA Tissue Kit L (Autogen, fk-dtl), utilizing a semi-automated system (Autogen, QuickGene-610L). For the Autogen system, the pellet was resuspended in 2 ml of 1X PBS, and the standard manufacturer’s protocol was conducted as if the cell suspension was whole blood. DNA was eluted with EDTA-free buffer, and quality was assessed using a Spectradrop microvolume microplate (Molecular Devices). Double-stranded DNA was quantified using Quant-iT Picogreen dsDNA assay (Thermo Fisher) as previously described.
(§4) DNA damage in the mitochondrial genome was measured utilizing Mito DNADX, an assay that we recently developed and described, currently the most robust way of measuring damage in mtDNA[39],[82]. The Mito DNADX assay combines optimized polymerase chain reaction (PCR) parameters using a high-fidelity DNA polymerase and a fluorescent dye that binds to double-stranded DNA that permits the real-time quantification of DNA damage in distinct loci in a 96-well platform. The premise of the Mito DNADX assay involves amplification of a specific mitochondrial PCR fragment in which less PCR product will be amplified when mtDNA damage or lesions block the ability of the DNA polymerase to replicate. As such, mtDNA damage or mtDNA repair intermediates that slow down or impair DNA polymerase progression will be detected. Therefore, equal amounts of sample DNA amplified under identical conditions can be directly compared across conditions to determine the mtDNA lesion frequency. Mitochondrial DNA lesion frequency was performed as previously described. Briefly, 15 ng of DNA was used to amplify long or short amplicons of the mitochondrial genome (as determined by primer sets). The amount of amplification is directly proportional to the number of undamaged DNA templates. Average lesion frequency is calculated as described. Results are presented with the values in experimental samples relative to control samples (normalized to 1 lesion per 10 kb). PCR reactions included KAPA Long Range HotStart DNA Polymerase (KAPA Biosystems)[49]. Each biological DNA sample was analyzed in technical triplicate. Limitations of the Mito DNADX assay have been recently discussed.

[2] = test system: LRRK2^G2019S/G2019S KI HEK293 cells; assay: Mito DNADX mtDNA damage and mtDNA copy number in LRRK2 G2019S/G2019S KI HEK293 cells; type: cell-based, human; conditions: for mtDNA copy number / mtDNA damage: LRRK2 G2019S/G2019S KI cells, 2 h; for mtDNA copy number: 10 nM-1 μM
Procedure: as §1
Following this treatment, “Post-treatment recovery 0 h” samples were collected immediately, or vehicle or MLi-2-containing treatment medium was washed out and replaced with fresh medium and incubated for 2 additional hours and then collected as “Post-treatment recovery 2 h” samples. Isolation, quantitation, and mtDNA damage was performed as described below.
as §2, §3, §4

[3] = test system: LRRK2 in heterozygous G2019S LRRK2 PD patient-derived LCLs; assay: LRRK2 pSer935 western immunoblot in heterozygous G2019S LRRK2 PD patient-derived LCLs; type: cell-based, human; conditions: for decrease in LRRK2 pSer935 levels: heterozygous G2019S LRRK2 PD LCLs
Procedure: PD patient G2019S LRRK2 (n = 2) and healthy subject control (n = 2)-derived LCLs were obtained from the NINDS Coriell biorepository (ID numbers are ND00011, ND00264, ND01618, ND02559). […] LCLs were cultured at 37 °C, 5% CO2, in RPMI-1640 (Sigma-Aldrich, R8758), 15% heat-inactivated fetal bovine serum (VWR Seradigm, 97068-091) and 0.5% Penicillin/Streptomycin (Corning, 30-002-CI). […] All in vitro experiments were repeated at least three times from distinct samples.
For LRRK2-WT or G2019S-LRRK2, ~1.5 million cells were pelleted and resuspended in 75 μl of lysis buffer [(RIPA Buffer (Sigma-Aldrich, R0278-50ML), protease inhibitor cocktail (Sigma-Aldrich, P8340), and Halt phosphatase inhibitor cocktail (Thermo Fisher, 78420)]. For LCLs, five million cells were pelleted and resuspended in 100 µl of lysis buffer. For both types of cells lysates were centrifuged at 10,000 × g after a 10 min incubation on ice, and the supernatant was collected. Protein was quantified using the DC protein assay (Bio-Rad, 5000112). In total, 50 μg of protein was loaded for HEK293 LRRK2-WT or G2019S-LRRK2 cells. Due to the differing endogenous LRRK2 levels, 40 µg of ND02559, 60 µg of ND00264, or 100 µg of ND00011 and ND01618 of protein sample was loaded. Protein samples were incubated at 100 °C for 5 min with NuPAGE Sample loading dye (Thermo Fisher, NP0007) and dithiothreitol as reducing agent. After 4–20% SDS-PAGE, the blots were blocked in 5% w/v nonfat dry milk in 1X PBST (0.05% Tween 20). For our investigations, the following primary antibodies were used: mouse anti-LRRK2 N241a (Antibodies INC, 75-253, 1:5000 for HEK293 cells and 1:2000 for LCLs), rabbit anti-LRRK2 pS935 (Abcam, ab133450, 1:10,000 for HEK293 cells and 1:2000 for LCLs), mouse anti-β-actin (Novus, 8H10D10, 1:10,000), and rabbit anti-LRRK2 pS1292 (Abcam, ab203181, 1:500). The blots were then probed with fluorescent-labeled secondary antibodies, IRDye donkey anti-mouse and anti-rabbit at 1:10,000 (LI-COR, 926-32212, 926-68072), and scanned using an Odyssey Imaging scanner (LI-COR). Fluorescence intensities were quantified using ImageStudio Lite software (LI-COR), and the signal from the protein of interest was normalized to the fluorescence intensity of either LRRK2 or β-actin. Values were averaged from at least three technical replicates within a cell line, or two biological replicates (two healthy control lines and two PD LCLs). All blots were derived from the same experiment and processed in parallel.

G2019S LRRK2 = conditions: cited from earlier work

CC1=C(C(=O)Nc2ccc3[nH]nc(-c4ccnc(N5CCOCC5)c4)c3c2)C(C)(C)n2nnnc2N1C [EB-42168]
mtDNA copy number [1]: not different; also recorded: did not change | mtDNA damage [1]: normalizing damage to WT-LRRK2 control levels (or lower) | mtDNA damage ([1]; listed as EB-42618): abrogated | mtDNA copy number [2]: reduced | mtDNA copy number ([2]; listed as EB-42618): modestly decreased | mtDNA damage ([2]; all concentrations tested (10 nM-1 μM)): reversed to wild-type levels | decrease in LRRK2 pSer935 levels ([3]; 10 nM, 2 h): ~ 30% and 25% | decrease in LRRK2 pSer935 levels ([3]; 100 nM, 2 h): ~40% | decrease of LRRK2 pSer935 ([3]; human PD patient-derived cells heterozygous for G2019S LRRK2, concentration not given): about 40% | fold more potent inhibition of G2019S LRRK2 than wild-type LRRK2 (G2019S LRRK2): 100 fold

C[C@@H]1CN(c2cc(-c3n[nH]c4ccc(OC5(C)CC5)cc34)ncn2)C[C@H](C)O1 [MLi-2, reference compound]
mtDNA copy number [1]: no effect; also recorded: unaltered | mtDNA damage [1]: restored mtDNA damage to WT-LRRK2 control levels | mtDNA copy number after inhibitor washout ([2]; 100 nM for 2 h, washout, 2 h recovery): no changes | mtDNA damage phenotype after inhibitor washout ([2]; KI cells, 100 nM for 2 h, washout, 2 h recovery in media): fully re-established | time to re-establishment of mtDNA damage phenotype after washout ([2]; KI cells, 100 nM for 2 h then washout): ≤ 2 h | mtDNA copy number [2]: did not change; also recorded: No effect; also recorded: No changes | mtDNA damage ([2]; 100 nM): reversed mtDNA damage levels to wild-type levels | effect on LRRK2 pSer935 (in words) ([3]; G2019S LRRK2 PD LCLs, 10 and 100 nM, 2 h): almost completely; also recorded: almost complete | potency in recombinant cell lines expressing WT-LRRK2 or G2019S-LRRK2 (G2019S LRRK2): equipotent
